Experimental data reported in patent US7932262B2 (Novartis AG, priority 2006, dated 2011).
Like-named read-outs stand apart in the source and are kept apart here.

What was measured:
PC-3 cells = test: Cell Proliferation Assay (Cell Titer Glo), PC-3 cell line; assay type: cell-based
Outline: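 Cell Titer Glo luminescence, read after fresh medium replaced the dosing medium, gave viability of PC-3 cells plated at 1000 cells/well. Compounds, 1:3 serially diluted in DMSO at 500× and then in medium, were added after 3-5 h adhesion and incubated 3 days at 37° C.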

PDK1 kinase = biological target: T1, PDK1 kinase (Homo sapiens, UniProt O15530); test: PDK1 Kinase Alpha Screen Assay; assay type: biochemical; details: read-out: PDK1 IC50
T1 sequence (O15530 1-556): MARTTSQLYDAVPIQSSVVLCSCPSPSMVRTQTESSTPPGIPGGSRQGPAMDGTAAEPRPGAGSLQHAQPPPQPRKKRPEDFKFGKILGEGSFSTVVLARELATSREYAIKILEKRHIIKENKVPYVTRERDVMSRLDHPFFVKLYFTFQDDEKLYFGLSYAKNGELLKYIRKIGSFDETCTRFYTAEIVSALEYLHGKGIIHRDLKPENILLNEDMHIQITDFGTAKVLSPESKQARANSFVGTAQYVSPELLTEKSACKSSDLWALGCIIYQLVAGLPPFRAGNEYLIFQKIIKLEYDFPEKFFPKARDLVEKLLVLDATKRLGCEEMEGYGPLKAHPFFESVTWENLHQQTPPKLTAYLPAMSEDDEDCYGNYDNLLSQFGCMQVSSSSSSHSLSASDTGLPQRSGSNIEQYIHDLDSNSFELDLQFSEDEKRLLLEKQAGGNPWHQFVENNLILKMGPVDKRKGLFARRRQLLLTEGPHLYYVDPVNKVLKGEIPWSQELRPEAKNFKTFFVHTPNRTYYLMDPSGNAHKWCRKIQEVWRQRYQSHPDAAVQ
Outline: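 Kinase inhibition measured as loss of AlphaScreen signal from antibody recognition of phosphorylated biotin-PDK1-4 peptide. Reactions contain 10 uM ATP and 50 nM peptide, run 3-18 hours before EDTA quench and overnight bead development at room temperature.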

[1] = Homo sapiens, PC-3, Cell Proliferation Assay, PC3, read-out: CPEC50 PC3
[2] = Homo sapiens, PC-3, PC3 cells, read-out: CPEC50 PC3
[3] = Homo sapiens, PC-3, 72 h, PC-3 cells, 3 days incubation, read-out: CP EC50 PC3

| SMILES | EC50 (PC-3 cells; [1]) [µM] | IC50 (PDK1 kinase; PDK1 Kinase Alpha Screen Assay) [µM] | IC50 (PDK1 kinase) [µM] | further results |
| --- | --- | --- | --- | --- |
| CC(C)N1CCC(Oc2ccc3cnc(Nc4cc(F)cc(F)c4)nc3c2)CC1 [Compound 574, N-(3,5-difluorophenyl)-7-(1-isopropylpiperidin-4-yloxy)quinazolin-2-amine] | < 5 | < 5 |  |  |
| CN(C)[C@H]1CCN(C(=O)c2cncc(-c3cccc4cnc(Nc5ccc(S(N)(=O)=O)cc5)nc34)c2)C1 [Compound 978, (S)-4-(8-(5-(3-(dimethylamino)pyrrolidine-1-carbonyl)pyridin-3-yl)quinazolin-2-ylamino)benzenesulfonamide] |  |  | < 5 | EC50 (PC-3 cells; [2]): 5 to 10 µM |
| CN1CCN(c2ccc(Nc3ncc4c(Br)ccc(OC5CCNCC5)c4n3)cc2)CC1 [Compound 373, 5-bromo-N-(4-(4-methylpiperazin-1-yl)phenyl)-8-(piperidin-4-yloxy)quinazolin-2-amine] | < 5 | 10 to 25 |  |  |
| CS(=O)(=O)c1cccc(Nc2ncc3cccc(-c4ccc(NCCN5CCCC5)nc4)c3n2)c1 [Compound 402, N-(3-(methylsulfonyl)phenyl)-8-(6-(2-(pyrrolidin-1-yl)ethylamino)pyridin-3-yl)quinazolin-2-amine] | 5 to 10 | < 5 |  |  |
| NC(=O)C1CCN(Cc2cncc(-c3cccc4cnc(Nc5ccc(S(N)(=O)=O)cc5)nc34)c2)CC1 [Compound 947, 1-((5-(2-(4-sulfamoylphenylamino)quinazolin-8-yl)pyridin-3-yl)methyl)piperidine-4-carboxamide] |  |  | < 5 | EC50 (PC-3 cells; [2]): 5 to 10 µM |
| CN1CCN(c2ccc(-c3cc(C(F)(F)F)cc4cnc(Nc5ccc(S(N)(=O)=O)cc5)nc34)cn2)CC1 [Compound 964, 4-(8-(6-(4-methylpiperazin-1-yl)pyridin-3-yl)-6-(trifluoromethyl)quinazolin-2-ylamino)benzenesulfonamide] |  |  | 5 to 10 | EC50 (PC-3 cells; [2]): < 5 µM |
| CC(C)N1CCC(Oc2ccc3cnc(Nc4ccc(Cl)cc4)nc3c2)CC1 [Compound 57, (4-Chloro-phenyl)-[7-(1-isopropyl-piperidin-4-yloxy)-quinazolin-2-yl]-amine] |  |  | < 5 | EC50 (PC-3 cells; [3]): < 5 µM |
| FC(F)(F)c1cc(Br)cc(Nc2ncc3cccc(OC4CCNCC4)c3n2)c1 [Compound 452, N-(3-bromo-5-(trifluoromethyl)phenyl)-8-(piperidin-4-yloxy)quinazolin-2-amine] | < 5 | < 5 |  |  |
| CC(C)N1CCC(Oc2cccc3cnc(Nc4ccc(NC(=O)N5CCCC5)cc4)nc23)CC1 [Compound 75, Pyrrolidine-1-carboxylic acid {4-[8-(1-isopropyl-piperidin-4-yloxy)-quinazolin-2-ylamino]-phenyl}-amide] |  |  | < 5 | EC50 (PC-3 cells; [3]): < 5 µM |
| CN1CCN(c2ccc(-c3cccc4cnc(Nc5ccc(N6CCOCC6)c(F)c5)nc34)cc2)CC1 [Compound 459, N-(3-fluoro-4-morpholinophenyl)-8-(4-(4-methylpiperazin-1-yl)phenyl)quinazolin-2-amine] | < 5 | < 5 |  |  |
| CC(C)N1CCC(Nc2ccc(Cl)c3cnc(Nc4ccc(C(=O)N5CCOCC5)cc4)nc23)CC1 [Compound 695, (4-(5-chloro-8-(1-isopropylpiperidin-4-ylamino)quinazolin-2-ylamino)phenyl)(morpholino)methanone] | 5 to 10 | < 5 |  |  |
| CN1CCC(Nc2ccc3cnc(Nc4ccc(S(=O)(=O)N5CCOCC5)cc4)nc3c2)CC1 [Compound 346, N7-(1-methylpiperidin-4-yl)-N2-(4-(morpholinosulfonyl)phenyl)quinazoline-2,7-diamine] | < 5 | < 5 |  |  |
| CC(C)N1CCC(Oc2cc3nc(Nc4ccc(N5CCOCC5)cc4)ncc3cc2Br)CC1 [Compound 620, 6-bromo-7-(1-isopropylpiperidin-4-yloxy)-N-(4-morpholinophenyl)quinazolin-2-amine] | < 5 | < 5 |  |  |
| CN1CCN(c2ccc(-c3cccc4cnc(Nc5ccc(F)cc5)nc34)cn2)CC1 [Compound 999, N-(4-fluorophenyl)-8-(6-(4-methylpiperazin-1-yl)pyridin-3-yl)quinazolin-2-amine] |  |  | < 5 | EC50 (PC-3 cells; [2]): < 5 µM |
| COc1cc(Nc2ncc3ccc(OC4CCNCC4)cc3n2)cc(C(F)(F)F)c1 [Compound 587, N-(3-methoxy-5-(trifluoromethyl)phenyl)-7-(piperidin-4-yloxy)quinazolin-2-amine] | < 5 | < 5 |  |  |
| CNC(=O)Cc1ccc(Nc2ncc3cccc(-c4ccc(NCCN5CCCC5)nc4)c3n2)cc1 [Compound 400, N-methyl-2-(4-(8-(6-(2-(pyrrolidin-1-yl)ethylamino)pyridin-3-yl)quinazolin-2-ylamino)phenyl)acetamide] | < 5 | < 5 |  |  |

| SMILES | EC50 (PC-3 cells; [1]) [µM] | IC50 (PDK1 kinase; PDK1 Kinase Alpha Screen Assay) [µM] | IC50 (PDK1 kinase) [µM] | further results |
| --- | --- | --- | --- | --- |
| CCN1CCC(Oc2ccc3cnc(Nc4cc(OC)cc(OC)c4)nc3c2)CC1 [Compound 56, (3,5-Dimethoxy-phenyl)-[7-(1-ethyl-piperidin-4-yloxy)-quinazolin-2-yl]-amine] |  |  | < 5 | EC50 (PC-3 cells; [3]): < 5 µM |
| CN1CCN(c2ccc(-c3cccc4cnc(Nc5cccc(-c6cnco6)c5)nc34)cn2)CC1 [Compound 443, 8-(6-(4-methylpiperazin-1-yl)pyridin-3-yl)-N-(3-(oxazol-5-yl)phenyl)quinazolin-2-amine] | < 5 | < 5 |  |  |
| CC(C)N1CCC(Oc2cc3nc(Nc4ccc(N5CCOCC5)cc4)ncc3cc2-c2nccs2)CC1 [Compound 619, 7-(1-isopropylpiperidin-4-yloxy)-N-(4-morpholinophenyl)-6-(thiazol-2-yl)quinazolin-2-amine] | < 5 | < 5 |  |  |
| CN1CCC(Nc2ccc(-c3cccc4cnc(Nc5ccc(S(N)(=O)=O)cc5)nc34)cn2)CC1 [Compound 955, 4-(8-(6-(1-methylpiperidin-4-ylamino)pyridin-3-yl)quinazolin-2-ylamino)benzenesulfonamide] |  |  | < 5 | EC50 (PC-3 cells; [2]): < 5 µM |
| CC(C)NC(=O)c1ccc(Nc2ncc3cccc(OC4CCNCC4)c3n2)cc1F [Compound 439, 2-fluoro-N-isopropyl-4-(8-(piperidin-4-yloxy)quinazolin-2-ylamino)benzamide] | < 5 | < 5 |  |  |
| COc1cccc(Nc2ncc3cccc(OC4CCN(C(C)C)CC4)c3n2)c1 [Compound 531, 8-(1-isopropylpiperidin-4-yloxy)-N-(3-methoxyphenyl)quinazolin-2-amine] | 5 to 10 | < 5 |  |  |
| COc1cc(Nc2ncc3ccc(OC4CCN(C)CC4)cc3n2)cc(OC)c1 [Compound 566, N-(3,5-dimethoxyphenyl)-7-(1-methylpiperidin-4-yloxy)quinazolin-2-amine] | < 5 | < 5 |  |  |
| Clc1cc(Nc2ncc3cccc(OC4CCNCC4)c3n2)ccc1N1CCOCC1 [Compound 471, N-(3-chloro-4-morpholinophenyl)-8-(piperidin-4-yloxy)quinazolin-2-amine] | < 5 | < 5 |  |  |
| Clc1ccc(Nc2ncc3cccc(-c4ccc(NCCN5CCCC5)nc4)c3n2)cc1 [Compound 995, N-(4-chorophenyl)-8-(6-(2-(pyrrolidin-1-yl)ethylamino)pyridin-3-yl)quinazolin-2-amine] |  |  | < 5 | EC50 (PC-3 cells; PC3 cells, read-out: CPEC50 PC3): < 5 µM |
| O=C(NC1CC1)c1ccc(Nc2ncc3cccc(OC4CCNCC4)c3n2)cc1F [Compound 444, N-cyclopropyl-2-fluoro-4-(8-(piperidin-4-yloxy)quinazolin-2-ylamino)benzamide] | < 5 | < 5 |  |  |
| CC(C)NC(=O)c1cc(F)cc(Nc2ncc3cccc(OC4CCNCC4)c3n2)c1 [Compound 461, 3-fluoro-N-isopropyl-5-(8-(piperidin-4-yloxy)quinazolin-2-ylamino)benzamide] | < 5 | < 5 |  |  |
| CC(C)N1CCC(c2c(O)ccc3cnc(Nc4ccc(F)cc4)nc23)CC1 [Compound 940, 2-(4-fluorophenylamino)-8-(1-isopropylpiperidin-4-yl)quinazolin-7-ol] |  |  | < 5 | EC50 (PC-3 cells; [2]): 5 to 10 µM |
| c1cc(OC2CCNCC2)c2nc(Nc3ccc(N4CCOCC4)cc3)ncc2c1 [Compound 546, N-(4-morpholinophenyl)-8-(piperidin-4-yloxy)quinazolin-2-amine] | < 5 | < 5 |  |  |
| CC(=O)NCCNC(=O)c1ccc(Nc2ncc3cccc(OC4CCNCC4)c3n2)cc1F [Compound 496, N-(2-acetamidoethyl)-2-fluoro-4-(8-(piperidin-4-yloxy)quinazolin-2-ylamino)benzamide] | 5 to 10 | < 5 |  |  |
| O=C(O)c1cc(Nc2ncc3cccc(OC4CCNCC4)c3n2)ccc1N1CCOCC1 [Compound 449, 2-morpholino-5-(8-(piperidin-4-yloxy)quinazolin-2-ylamino)benzoic acid] | 5 to 10 | < 5 |  |  |
